From BindingDB's records for doi:10.1016/s0960-894x(00)00282-1 (Novartis Horsham Research Centre, 2000)

Test: Compound was evaluated for its inhibitory activity against Serine protease chymotrypsin

Ki [µM] | Compound
7.55 | CC1CNc2c(cccc2S(=O)(=O)N[C@@H](Cc2nc3ccccc3s2)C(=O)N2CCC(CCO)CC2)C1 (stereo partly drawn) [3-Methyl-1,2,3,4-tetrahydro-quinoline-8-sulfonic acid {(S)-1-benzothiazol-2-ylmethyl-2-[4-(2-hydroxy-ethyl)-piperidin-1-yl]-2-oxo-ethyl}-amide]
4.91 | CCC1CCN(C(=O)C(Cc2nc3ccccc3s2)NS(=O)(=O)c2cccc3c2NCC(C)(C)C3)CC1 (configuration not stated) [MD805 Analogue]
